Experiment [1] deals with etiolated eto1-4 seedlings. As to the kind of experiment: Triple response phenotype / hypocotyl length of etiolated eto1-4 seedlings. In kind it is in vivo, Arabidopsis thaliana. To be noted: for ranking in both hypocotyl length and ethylene level assays / suppression of the eto1-4 (triple response) phenotype: 10 μM; for ranking in both hypocotyl length and ethylene level assays: etiolated eto1-4, FIG. 3; for suppression of the eto1-4 (triple response) phenotype: germinated in the dark for 3 days; for effectiveness in phenotypical assay: etiolated eto1-4 seedlings; for concentration at which hypocotyl elongation becomes visible / concentration reaching maximal / nearly saturated effect on hypocotyl: eto1-4, 3 days in the dark, dose series. On the procedure: All mutants and transgenic plants were derived from the wild-type Arabidopsis thaliana Columbia ecotype (Col-0) and cultivated under a long-day condition (16-h light/8-h dark at 22° C.) under exemplary e light (100-150 μE m^−2 s^−1). A reporter construct, 5×EBS::LUC (a generous gift from Drs. Hai Li and Anna N. Stepanova, Salk Institute, USA), containing 5 copies of EIN3 binding sequence (EBS) fused with luciferase gene (LUC) was transformed to eto1-4 and subsequently used for screening compounds of a chemical library. Ethylene mutants eto1-4, eto2-1, ctr1-1 and the EIN3 overexpression line (35S::EIN3) were described previously (Solano, et al. (1998) Genes Dev 12, 3703-3714). Seeds were sterilized with 30% bleach for 6 min and sown in half-strength Murashige and Skoog (0.5×MS) medium supplemented with 0.8% agar and stratified in the dark at 4° C. for 3-4 days before germination. For analysis of the triple response phenotype, stratified seeds were grown in the dark at 22° C. for 3 days before scoring the phenotype.
A DIVERSet library (ChemBridge Inc.) containing 10,000 small molecules (in DMSO) was used for chemical screening. Three rounds of chemical screenings were carried out in 0.5×MS agar medium containing individual chemicals in each well of 96- and 24-well micro-titer plates. The initial screening was performed by sowing 10 to 15 seeds in the wells of micro-titer plates containing small molecules at 50 μM to score the long-hypocotyl phenotype. For the second and third screenings, we used 25 μM of small molecules selected from the first round of screening to score and confirm the phenotype. The seedling phenotype was scored by use of a digital camera attached to a Zeiss stereomicroscope (SteREO V8), and quantitation of hypocotyl length was performed by use of NIH Image J software. AVG and silver thiosulfate (STS, by mixing silver nitrate and sodium thiosulfate at a 1:4 molar ratio immediately before use) were obtained from Sigma and used as controls to suppress ethylene biosynthesis and perception, respectively. Agar medium was supplemented with 1-aminocyclopropane-1-carboxylic acid (10 μM, Merck) to induce the triple response in etiolated seedlings.
Shortened hypocotyls in etiolated seedlings is one of the triple response phenotypes (Guzman, et al. (1990) Plant Cell 2, 513-523; Wang, et al. (2004) Nature 428, 945-950). Two chemical compounds negating ethylene response, AVG and STS, were included as a control for comparison.

Experiment [2] has as its system etiolated eto2-1 seedlings. As to the kind of experiment: Hypocotyl length of etiolated eto2-1 seedlings. In kind it is in vivo, Arabidopsis thaliana. To be noted: 30 μM. On the procedure:
Seeds of eto1-4 and eto2-1 were germinated in the dark in the absence (−) or presence (+) of different concentrations (10, 20 or 30 μM) of exemplary invention compounds and AVG. The length of hypocotyls and ethylene levels were quantified in 3-day-old etiolated seedlings. Data represent means±SE (n>40), and the experiments were repeated 3 times with similar results.
Therefore, ACC oxidase as the primary target of exemplary the exemplary invention compounds can be excluded. To determine whether the exemplary invention compounds are inhibitors of ACC synthase, the following assays were used. First, the hypocotyl length and ethylene level in the dominant eto2-1 mutant were analyzed, which bears a missense mutation at the 3′ terminus of ACS5 to generate a mutated yet functional protein, ACS5^eto2-1. […] Second, the effect of exemplary invention compounds on the enzymatic activity of recombinant Arabidopsis ACS5 protein by an in vitro ACS activity assay was analyzed (Chae, et al. (2003) Plant Cell 15, 545-559; Savaldi-Goldstein, et al. (2008) Proc Natl Acad Sci USA 105, 15190-15195).

For experiment [3], the target named is T1, recombinant Arabidopsis ACS5 (Arabidopsis thaliana, UniProt Q37001).
T1 construct: The full-length cDNA of Arabidopsis ACS5 (At5g65800) was cloned to pETDuet (Novagen); 6His (N); made in house; host or cells: E. coli BL21-CodonPlus (Stratagene)
T1 sequence (Q37001 1-470): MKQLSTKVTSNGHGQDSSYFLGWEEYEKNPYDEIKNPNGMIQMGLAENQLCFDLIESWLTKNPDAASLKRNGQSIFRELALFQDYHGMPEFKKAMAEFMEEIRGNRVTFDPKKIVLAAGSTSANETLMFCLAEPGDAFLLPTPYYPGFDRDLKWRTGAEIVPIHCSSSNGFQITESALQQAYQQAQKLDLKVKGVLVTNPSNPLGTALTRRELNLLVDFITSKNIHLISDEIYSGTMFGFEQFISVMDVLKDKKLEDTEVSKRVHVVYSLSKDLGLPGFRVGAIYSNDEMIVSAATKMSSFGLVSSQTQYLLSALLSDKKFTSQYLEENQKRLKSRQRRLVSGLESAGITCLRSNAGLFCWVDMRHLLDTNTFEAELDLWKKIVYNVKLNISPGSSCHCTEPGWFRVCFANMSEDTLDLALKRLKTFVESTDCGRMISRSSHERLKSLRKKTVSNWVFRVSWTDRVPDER
As to the kind of experiment: Enzyme kinetics assay of ACS5 (Lineweaver-Burk). In kind it is biochemical. Set-up: Vmax of recombinant ACS5 in the presence of inhibitor: unit not given here. The protocol: For the enzyme kinetics assay, different concentrations of SAM (20, 40, 60, 80, 100, 150, and 200 μM) were used to determine the Km and Vmax of purified recombinant ACS5. In addition, two concentrations, 0.05 and 0.1 μM, of AVG and compound 7303 were tested to determine the inhibition constant Ki. Reactions of enzyme kinetics assay were performed by first incubating chemical inhibitors or DMSO with different concentrations of SAM in 20-mL GC vials, then 1.6 μg purified ACS5 was added to initiate the enzyme reaction for 30 min at 25° C. Gas chromatography was used to quantitate the levels of ethylene chemically converted from ACC as described previously. Data analysis of enzyme kinetics assays and preparation of Lineweaver-Burk plots were done by SIGMAPLOT (Systat Software Inc.).
Because the exemplary invention compounds and AVG have distinct chemical structures (Table 1), they may use different mechanisms to inhibit ACC synthase. To clarify this issue, compound 7303 was selected as a representative of the exemplary invention compounds for enzyme kinetic assay to determine the inhibitory mechanism. […] Data from the enzyme kinetic assay support that the exemplary invention compounds are novel inhibitors of ACC synthase different from AVG and show uncompetitive inhibition in ACS activity.

Entries after “also recorded” stand apart in the source; their conditions may differ.

The Vmax is the rate approached at saturating substrate. Usually Ki stands for a measure of affinity in units of concentration, obtained from inhibition or displacement. For `COc1ccc(C2CC(=O)c3cnc(Nc4ccccc4)nc3C2)cc1` (stereo not drawn) [Compound 7303], in experiment [1], the “ranking in both hypocotyl length and ethylene level assays” value (“ranking” below) is “most effective”; the “suppression of the eto1-4 (triple response) phenotype” value was “Suppression; also recorded: effect comparable to that of compounds 9393 and 9370”; the “effectiveness in phenotypical assay” value was “highly effective; also recorded: the most effective”; the “concentration at which hypocotyl elongation becomes visible” value turned out to be 0.1 µM. In experiment [1], the “concentration reaching maximal / nearly saturated effect on hypocotyl” value amounted to 5 µM. Also, in experiment [2], the “suppression in hypocotyl length” value was determined as 25%. Further, the “Vmax of recombinant ACS5 in the presence of inhibitor” value in experiment [3] (0.1 μM inhibitor, without inhibitor 95.1±5.0) was found to be 50.5±1.2. The “inhibition pattern (mechanism)” value in experiment [3] (Lineweaver-Burk plot, 0.05 and 0.1 μM) was “uncompetitive inhibitor”. In addition, the Vmax in experiment [3] (kinetic parameters of recombinant ACS5 fitted for the inhibitor series, substrate SAM) was 92.4 µmol/h/mg. Also, the Ki in experiment [3] (recombinant ACS5, inhibitor at 0.05 and 0.1 μM, read-out: calculated inhibition constant (Ki)) was 98.4 ± 6.7 nM.

`Cc1ccc(C2CC(=O)c3cnc(NC4CCCC4)nc3C2)cc1` (stereo not drawn) [Compound 9370]: in experiment [1], the “ranking” value is listed as “most effective”; the “suppression of the eto1-4 (triple response) phenotype” value is “Suppression; also recorded: effectiveness comparable to that of silver nitrate”; the “effectiveness in phenotypical assay” value was “highly effective”; the “concentration at which hypocotyl elongation becomes visible” value amounted to 0.1 µM. For the same molecule, the “concentration reaching maximal / nearly saturated effect on hypocotyl” value in experiment [1] was determined as 5 µM.

Regarding `CC1(C)CC(=O)c2cnc(NC3CCCC3)nc2C1` [Compound 9393], in experiment [1], the “ranking” value is reported as “most effective”; the “suppression of the eto1-4 (triple response) phenotype” value is “Suppression; also recorded: effectiveness comparable to that of silver nitrate”; the “effectiveness in phenotypical assay” value is reported as “highly effective”.

These data come from US8481459B2, “Chemical inhibitors of ethylene biosynthesis” (Academia Sinica, priority 2010, dated 2013).
